Consider two molecules from US20080051456A1, “Glycine Reuptake Inhibitors for Treatment of Drug Dependence” (priority 2005, published 2008).

“And” between values parts separate entries of the source, which are not always exact repeats. Equal entries are not always repeated.

For data set [1], the target named is T1, GlyT2 protein (Homo sapiens, UniProt Q9Y345).
T1 sequence (Q9Y345 1-797): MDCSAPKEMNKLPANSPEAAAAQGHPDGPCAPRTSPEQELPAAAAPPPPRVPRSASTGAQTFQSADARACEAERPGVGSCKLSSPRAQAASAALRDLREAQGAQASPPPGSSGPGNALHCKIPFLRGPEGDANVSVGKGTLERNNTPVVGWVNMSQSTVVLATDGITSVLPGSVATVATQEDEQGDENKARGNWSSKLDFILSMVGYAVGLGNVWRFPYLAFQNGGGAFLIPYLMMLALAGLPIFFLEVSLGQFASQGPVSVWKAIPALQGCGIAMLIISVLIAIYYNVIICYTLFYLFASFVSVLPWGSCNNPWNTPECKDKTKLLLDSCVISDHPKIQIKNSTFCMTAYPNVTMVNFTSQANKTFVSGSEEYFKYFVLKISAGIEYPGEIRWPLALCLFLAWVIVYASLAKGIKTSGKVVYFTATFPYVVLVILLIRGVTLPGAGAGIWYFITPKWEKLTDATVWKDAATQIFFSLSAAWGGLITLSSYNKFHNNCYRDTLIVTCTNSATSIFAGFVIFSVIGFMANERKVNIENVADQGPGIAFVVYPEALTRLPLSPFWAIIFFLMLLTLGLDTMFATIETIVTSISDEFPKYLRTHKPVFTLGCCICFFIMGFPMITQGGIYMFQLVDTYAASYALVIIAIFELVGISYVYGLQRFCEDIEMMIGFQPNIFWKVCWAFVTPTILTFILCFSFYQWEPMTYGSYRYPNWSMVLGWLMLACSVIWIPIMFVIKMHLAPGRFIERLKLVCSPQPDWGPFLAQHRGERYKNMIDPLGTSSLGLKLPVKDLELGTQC
As to conditions: relative to main action on GlyT1; cited from earlier work.

For data set [2] the following is noted: oral administration.
The subject of data set [3] is striatal extracellular glycine levels. As to conditions: 6 mg/kg i.p., rat approx. 500 g; stated as expected; cited from earlier work.
In data set [4] the test system is ethanol high preferring male Wistar rats. Briefly: Limited access free choice ethanol (6% v/v) / water drinking in ethanol high preferring rats.
Protocol: Male adult Wistar rats weighing 250-300 g (approx. 50 days old) were supplied by Beekay (Stockholm, Sweden). The animals were housed in groups of four at a constant cage temperature (25° C.) and humidity (65° C.). The animals were allowed to adapt for one week to the novel environment before any experiment (Screening for ethanol preference) was performed. They were kept under regular light-dark conditions (light on at 07:00 a.m. and off at 19:00 p.m.) with free access to standard rat feed (Beekay feed) and tap water.
Rats had continuous access to a bottle of ethanol solution in addition to the water bottle. […] The animals were subsequently housed individually in plastic cages. They had continuous access to two bottles containing either tap water or 6% ethanol solution. […] Water and ethanol intake were measured over a 6-7-week period. The amount (g) of ethanol solution consumed, in percent of total fluid intake (g), was used as an index of ethanol preference. Rats were classified as low-(<20% ethanol), medium (20%-60% ethanol), or high-(>60% ethanol) preferring based on their ethanol preference.
Ethanol (AB Svensk sprit) was dissolved (2-4-6% v/v) with regular tap water and presented in regular plastic 300 ml bottles. […] NaCl (0.9%) was used as vehicle.
To adapt to the experimental procedure, approx. 80 days old ethanol high preferring male Wistar rats were limited to drink both ethanol (6% v/v) and water for only three hours/day during one week, so called limited access (limited access) drinking. Thereafter, daily MTHMPNMglycine or vehicle administration started. MTHMPNMglycine or vehicle was injected i.p. and the rats were allowed to rest for approx. 40 min after which they were presented a choice between ethanol and water and allowed to drink for 3 hours. In the first experiment rats were challenged with MTHMPNMglycine (6 mg/kg) or vehicle for two weeks and alcohol and water intake were monitored. The experiment was preceded and ended by a limited access period.
Again the rats were treated with MTHMPNMglycine (6 mg/kg) or vehicle for 13 days. In addition, the rats were thereafter exposed to a two-week period of alcohol deprivation (limited access), during which they were allowed to drink only water 3 hours per day. After the limited access period the rats were again challenged with MTHMPNMglycine or vehicle and re-exposed to ethanol for an additional time-period of 13 days. […] The rats were presented to the water and ethanol (6% v/v) bottles approx. 40 minutes after drug administration.
The ethanol and water consumption data were statistically analysed using Analysis of variance (ANOVA) for repeated measures followed by post hoc analysis by means of Fisher's Protected Least Significant Difference (PLSD) test. Paired t-test was used for dependent comparisons between values obtained at different time-points. All values are expressed as means ±SEM. A probability value (P) less than 0.05 was considered statistically significant.
A new set of male ethanol high-preferring Wistar rats were injected i.p. with either MTHMPNMglycine or vehicle. Approx. 40 minutes after injection all rats were exposed to a free choice between ethanol (6% v/v) and water for 3 hours. First all rats received MTHMPNMglycine (6 mg/kg) or vehicle daily during 13 days.
Setting [5] is: 10 mg/kg, dose-finding pilot experiments.

In the case of `CCCOc1ccc(C2=CC3(CCN(CC(=O)O)CC3)Oc3ccccc32)cc1F` [FPPSBPAA, 4-[3-fluoro-4-propoxyphenyl]-spiro[2H-1-benzopyran-2,4′-piperidine]-1′-acetic acid], the “action on the GlyT2 protein” value in data set [1] is “negligible action”.

Turning to `COc1ccc2c(c1)CC[C@H](CN(C)CC(=O)O)[C@@H]2c1ccccc1` [MTHMPNMglycine], in data set [1], the “action on the GlyT2 protein” value was “negligible action”. Also, the “oral dose that induced visible behavioral changes” value in data set [2] was at least 13.5 mg/kg. Moreover, the “duration of behavioral changes” value under setting [5] fell in the range of 10 to 15 min. Besides, under setting [5], the “incidence of behavioral changes” value is recorded as “one out of ten”. The “gross behavior at the doses used in the study” value (1.5-6 mg/kg i.p., rats) is “behaviorally unaffected”. Further, the “mean body weight vs vehicle” value (during the limited access/experimental time) is “significant lowered”. Moreover, the “increase of striatal extracellular glycine levels” value in data set [3] is 50-80% and 50-70%. Further, the “total fluid intake vs vehicle” value was “significantly reduced” in data set [4] (Experiment 1, 6 mg/kg i.p. daily, day 4-14, group effect p=0.0004, groups also differed on day 1-3); “significantly lowered” in data set [4] (Experiment 2, 6 mg/kg i.p., after four days of treatment, day 8-16, group effect p<0.0001); “no difference” in data set [4] (Experiment 2, after the alcohol deprivation (limited access) period). Moreover, the “ethanol intake vs vehicle” value in data set [4] (Experiment 1, 6 mg/kg i.p. daily, day 4-14, group effect p=0.0125) was “significantly reduced”; in data set [4] (Experiment 2, 3 mg/kg i.p., day 24-27, group effect p=0.2973), “difference between the groups was reduced”; in data set [4] (Experiment 2, 6 mg/kg i.p., after one week of treatment, day 11-17, group effect p=0.0001), “even more pronounced”; in data set [4] (Experiment 2, 6 mg/kg i.p., after two weeks of alcohol deprivation, day 17-23, group effect p=0.0348), “remained significantly reduced”; in data set [4] (Experiment 2, 6 mg/kg i.p., first 6 days of treatment, day 4-10, group effect p=0.0008) it was “significantly reduced”. Moreover, the “ethanol preference vs vehicle” value in data set [4] (Experiment 1, 6 mg/kg i.p. daily, day 4-14, group effect p=0.1899) is on record as “no group effect”; in data set [4] (Experiment 2, 3 mg/kg i.p., day 24-27, group effect p=0.1555), “appeared to decrease the difference between the groups”; in data set [4] (Experiment 2, 6 mg/kg i.p., after approx. one week, day 11-16, group effect p<0.0001) it was “significant decrease”; in data set [4] (Experiment 2, 6 mg/kg i.p., after two weeks of alcohol deprivation, day 17-23, group effect p=0.0572), “remained reduced, although not significantly”; in data set [4] (Experiment 2, 6 mg/kg i.p., first 6 days, day 4-10, group effect p=0.1300), “no significant difference”. Also, the “water intake vs vehicle” value in data set [4] (Experiment 1, 6 mg/kg i.p. daily, day 4-14, group effect p=0.8713) was “no difference”; in data set [4] (Experiment 2, 6 mg/kg i.p., after alcohol deprivation, day 17-23, group effect p=0.0659), “tendency to increase their water intake”; in data set [4] (Experiment 2, 6 mg/kg i.p., first part of the experiment (before alcohol deprivation)), “not significantly different”. Further, the “ethanol preference, difference vs vehicle” value in data set [4] (Experiment 2, 1.5 mg/kg i.p., day 28-29, group effect p=0.2117) was “totally abolished”. Further, the “ethanol intake, difference vs vehicle” value in data set [4] (Experiment 2, 1.5 mg/kg i.p., day 28-29, group effect p=0.8614) is “totally abolished”. Further, the “treatment time after which the ethanol intake reducing effect was most pronounced” value in data set [4] (Experiment 2, 6 mg/kg i.p.) lay in the range of 4 to 6 days. Further, the “total fluid intake after vs before reintroducing ethanol choice (within group)” value in data set [4] (Experiment 2, 6 mg/kg i.p., day 14 vs. day 19, paired t-test p<0.0001) was “significantly increased”. Besides, the “ethanol intake after vs before alcohol deprivation period (within group)” value in data set [4] (Experiment 2, 6 mg/kg i.p., day 14 vs. day 19, paired t-test p=0.0135) was “significantly increased”. Besides, in data set [4] (Experiment 2, 6 mg/kg i.p., day 14 vs. day 19, paired t-test p=0.0188), the “water intake after vs before alcohol deprivation period (within group)” value is “significantly increased their water intake”.
